Measurements published in the NIST ThermoML archive (doi:10.1021/je050376y).

Experiment: xn = mol fraction of the nth substance listed
Settings: 101 kPa, Liquid

Cc1ccc(O)cc1 [4-methylphenol] + OCCO
Settings	mass density [kg/m3]	viscosity [mPa·s]
308.15 K, x1 = 0.1001	1088.89	12.15
308.15 K, x1 = 0.1999	1077.45	12.43
308.15 K, x1 = 0.2997	1067.32	12.43
308.15 K, x1 = 0.4001	1058.44	12.09
308.15 K, x1 = 0.4998	1050.66	11.54
308.15 K, x1 = 0.6002	1043.69	10.83
308.15 K, x1 = 0.7	1037.34	10.01
308.15 K, x1 = 0.8	1031.62	9.31
308.15 K, x1 = 0.8994	1026.55	8.726
308.15 K, x1 = 1	1021.98	8.444
313.15 K, x1 = 0.1001	1085.2	9.956
313.15 K, x1 = 0.1999	1073.68	10.18
313.15 K, x1 = 0.2997	1063.52	10.13
313.15 K, x1 = 0.4001	1054.58	9.821
313.15 K, x1 = 0.4998	1046.78	9.353
313.15 K, x1 = 0.6002	1039.82	8.735
313.15 K, x1 = 0.7	1033.45	8.103
313.15 K, x1 = 0.8	1027.72	7.526
313.15 K, x1 = 0.8994	1022.63	7.022
313.15 K, x1 = 1	1018.05	6.745
318.15 K, x1 = 0.1001	1081.49	8.319
318.15 K, x1 = 0.1999	1069.89	8.436
318.15 K, x1 = 0.2997	1059.67	8.358
318.15 K, x1 = 0.4001	1050.7	8.059
318.15 K, x1 = 0.4998	1042.88	7.662
318.15 K, x1 = 0.6002	1035.9	7.175
318.15 K, x1 = 0.7	1029.55	6.646
318.15 K, x1 = 0.8	1023.79	6.177
318.15 K, x1 = 0.8994	1018.7	5.739
318.15 K, x1 = 1	1014.09	5.471
323.15 K, x1 = 0.1001	1077.77	7.031
323.15 K, x1 = 0.1999	1066.09	7.069
323.15 K, x1 = 0.2997	1055.81	6.976
323.15 K, x1 = 0.4001	1046.81	6.721
323.15 K, x1 = 0.4998	1038.98	6.378
323.15 K, x1 = 0.6002	1031.99	5.971
323.15 K, x1 = 0.7	1025.61	5.523
323.15 K, x1 = 0.8	1019.85	5.136
323.15 K, x1 = 0.8994	1014.75	4.788
323.15 K, x1 = 1	1010.12	4.532
333.15 K, x1 = 0.1001	1070.28	5.121
333.15 K, x1 = 0.1999	1058.44	5.137
333.15 K, x1 = 0.2997	1048.06	5.029
333.15 K, x1 = 0.4001	1038.98	4.824
333.15 K, x1 = 0.4998	1031.11	4.607
333.15 K, x1 = 0.6002	1024.09	4.298
333.15 K, x1 = 0.7	1017.71	3.988
333.15 K, x1 = 0.8	1011.92	3.711
333.15 K, x1 = 0.8994	1006.8	3.461
333.15 K, x1 = 1	1002.09	3.245
343.15 K, x1 = 0.1001	1060.64	3.886
343.15 K, x1 = 0.1999	1048.68	3.849
343.15 K, x1 = 0.2997	1038.24	3.752
343.15 K, x1 = 0.4001	1029.09	3.602
343.15 K, x1 = 0.4998	1021.2	3.424
343.15 K, x1 = 0.6002	1014.17	3.201
343.15 K, x1 = 0.7	1007.79	2.995
343.15 K, x1 = 0.8	1001.99	2.786
343.15 K, x1 = 0.8994	996.84	2.588
343.15 K, x1 = 1	992.07	2.431
353.15 K, x1 = 0.1001	1055.58	2.934
353.15 K, x1 = 0.1999	1043.36	2.99
353.15 K, x1 = 0.2997	1032.81	2.915
353.15 K, x1 = 0.4001	1023.59	2.776
353.15 K, x1 = 0.4998	1015.62	2.648
353.15 K, x1 = 0.6002	1008.55	2.488
353.15 K, x1 = 0.7	1002.15	2.326
353.15 K, x1 = 0.8	996.33	2.173
353.15 K, x1 = 0.8994	991.1	2.022
353.15 K, x1 = 1	986.24	1.891
